Measurements from ChEMBL document CHEMBL4819006, “1,4,6-Trisubstituted imidazo[4,5-c]pyridines as inhibitors of Bruton's tyrosine kinase” (Eur J Med Chem, 2021).
Calls of active or inactive are those of the source. The rule behind the calls is not given here.

Legend:
[1] = target: Tyrosine-protein kinase ABL1 (Homo sapiens) (UniProt P00519); experiment: Inhibition of Abl (unknown origin) expressed in Sf9 cells assessed as residual activity using GGEAIYAAPFKK peptide as substrate in presence of ATP and Ci(gamma33-P)ATP at 1 uM measured by microplate reader
Tyrosine-protein kinase ABL1 (Homo sapiens), sequence (P00519 whole entry): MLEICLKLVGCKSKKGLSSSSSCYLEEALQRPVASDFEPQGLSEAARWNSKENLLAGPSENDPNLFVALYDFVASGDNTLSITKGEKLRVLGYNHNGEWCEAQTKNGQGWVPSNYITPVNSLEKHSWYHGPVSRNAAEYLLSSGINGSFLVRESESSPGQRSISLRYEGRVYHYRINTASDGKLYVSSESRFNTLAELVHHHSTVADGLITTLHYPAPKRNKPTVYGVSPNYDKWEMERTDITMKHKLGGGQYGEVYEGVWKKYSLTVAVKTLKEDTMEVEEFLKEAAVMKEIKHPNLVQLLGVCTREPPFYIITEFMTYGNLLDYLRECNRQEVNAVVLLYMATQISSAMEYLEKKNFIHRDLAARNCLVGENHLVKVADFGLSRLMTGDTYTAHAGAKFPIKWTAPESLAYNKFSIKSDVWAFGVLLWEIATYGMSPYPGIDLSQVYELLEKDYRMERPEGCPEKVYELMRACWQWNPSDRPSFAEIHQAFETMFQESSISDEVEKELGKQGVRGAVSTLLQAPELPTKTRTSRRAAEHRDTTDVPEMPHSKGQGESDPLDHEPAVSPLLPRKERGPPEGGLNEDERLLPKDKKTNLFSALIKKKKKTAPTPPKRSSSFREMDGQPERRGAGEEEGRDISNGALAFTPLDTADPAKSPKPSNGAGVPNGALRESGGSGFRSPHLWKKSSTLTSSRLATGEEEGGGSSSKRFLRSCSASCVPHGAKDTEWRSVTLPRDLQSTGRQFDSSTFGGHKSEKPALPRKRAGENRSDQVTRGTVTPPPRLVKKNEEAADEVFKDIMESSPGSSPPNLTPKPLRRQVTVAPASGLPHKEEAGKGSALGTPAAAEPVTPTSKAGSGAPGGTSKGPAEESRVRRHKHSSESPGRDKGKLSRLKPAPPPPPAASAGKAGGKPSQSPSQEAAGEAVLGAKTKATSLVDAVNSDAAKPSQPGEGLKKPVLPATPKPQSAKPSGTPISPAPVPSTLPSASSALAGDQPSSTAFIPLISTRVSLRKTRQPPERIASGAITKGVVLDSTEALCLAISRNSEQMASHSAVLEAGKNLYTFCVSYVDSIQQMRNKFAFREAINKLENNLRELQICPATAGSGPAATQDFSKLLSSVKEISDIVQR

[2] = Growth inhibition of human patient derived UPF1H cells assessed as inhibition of cell growth measured after 72 hrs by resazurin dye based assay; format: functional
[3] = target: T1, Tyrosine-protein kinase BTK (Homo sapiens, UniProt Q06187); experiment: Inhibition of human BTK using poly (Glu,Tyr) as substrate in presence of ATP and Ci(gamma33-P) ATP measured by microplate reader assay
T1 sequence (Q06187 whole entry): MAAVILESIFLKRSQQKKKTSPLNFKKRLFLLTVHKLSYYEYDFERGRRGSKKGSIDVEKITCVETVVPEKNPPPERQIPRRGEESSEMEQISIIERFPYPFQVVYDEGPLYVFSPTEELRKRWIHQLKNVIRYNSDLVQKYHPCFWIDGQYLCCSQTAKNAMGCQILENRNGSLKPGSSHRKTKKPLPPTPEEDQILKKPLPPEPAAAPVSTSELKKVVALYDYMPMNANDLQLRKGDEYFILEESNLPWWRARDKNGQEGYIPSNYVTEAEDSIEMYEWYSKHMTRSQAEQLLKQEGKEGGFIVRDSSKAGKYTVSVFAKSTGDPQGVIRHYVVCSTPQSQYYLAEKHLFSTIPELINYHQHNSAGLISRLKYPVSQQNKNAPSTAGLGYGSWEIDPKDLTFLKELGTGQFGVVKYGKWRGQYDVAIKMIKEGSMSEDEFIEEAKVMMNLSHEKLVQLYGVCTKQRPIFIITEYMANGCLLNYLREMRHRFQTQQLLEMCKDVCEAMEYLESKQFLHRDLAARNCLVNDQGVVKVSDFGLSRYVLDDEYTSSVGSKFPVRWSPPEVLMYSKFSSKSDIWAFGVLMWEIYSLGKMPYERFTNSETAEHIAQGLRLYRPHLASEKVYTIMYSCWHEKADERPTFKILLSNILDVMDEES

K562 = experiment: Growth inhibition of human K562 cells assessed as inhibition of cell growth measured after 72 hrs by resazurin dye based assay; format: functional
[4] = target: Tyrosine-protein kinase Fyn (Homo sapiens) (UniProt P06241); experiment: Inhibition of human recombinant full length GST-tagged FYN (M1 to L537 residues) assessed as residual activity using poly (Glu,Tyr) as substrate in presence of ATP and Ci(gamma33-P) ATP at 1 uM measured by microplate reader assay
Tyrosine-protein kinase Fyn (Homo sapiens), sequence (P06241 2-537 limits assumed): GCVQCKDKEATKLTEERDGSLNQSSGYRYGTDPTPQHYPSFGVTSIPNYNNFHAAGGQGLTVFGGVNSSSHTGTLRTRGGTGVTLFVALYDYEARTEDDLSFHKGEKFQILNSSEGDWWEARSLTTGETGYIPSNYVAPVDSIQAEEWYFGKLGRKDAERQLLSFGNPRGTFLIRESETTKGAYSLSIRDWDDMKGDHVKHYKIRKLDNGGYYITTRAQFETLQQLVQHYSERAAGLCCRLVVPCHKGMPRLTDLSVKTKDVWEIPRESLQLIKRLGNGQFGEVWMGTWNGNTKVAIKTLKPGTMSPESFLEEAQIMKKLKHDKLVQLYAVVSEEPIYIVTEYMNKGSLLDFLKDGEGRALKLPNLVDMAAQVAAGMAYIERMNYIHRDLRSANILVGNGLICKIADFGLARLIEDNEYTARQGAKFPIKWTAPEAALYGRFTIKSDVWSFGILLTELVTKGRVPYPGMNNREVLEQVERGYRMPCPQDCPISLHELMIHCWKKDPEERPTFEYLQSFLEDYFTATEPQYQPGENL

[5] = Growth inhibition of human patient derived UPF7U cells assessed as inhibition of cell growth measured after 72 hrs by resazurin dye based assay; format: functional
[6] = target: T1, Tyrosine-protein kinase BTK; experiment: Inhibition of human BTK assessed as residual activity using poly (Glu,Tyr) as substrate in presence of ATP and Ci(gamma33-P) ATP at 1 uM measured by microplate reader assay
[7] = target: Receptor-type tyrosine-protein kinase FLT3 (Homo sapiens) (UniProt P36888); experiment: Inhibition of human recombinant […] N-terminal GST-tagged FLT3 (R571 to S993 residues) assessed as residual activity using poly (Ala, Glu, Lys, Tyr) hydrobromide as substrate in presence of ATP and Ci(gamma33-P) ATP at 1 uM measured by microplate reader assay
Receptor-type tyrosine-protein kinase FLT3 (Homo sapiens), sequence (P36888 whole entry, the tested form may be a part): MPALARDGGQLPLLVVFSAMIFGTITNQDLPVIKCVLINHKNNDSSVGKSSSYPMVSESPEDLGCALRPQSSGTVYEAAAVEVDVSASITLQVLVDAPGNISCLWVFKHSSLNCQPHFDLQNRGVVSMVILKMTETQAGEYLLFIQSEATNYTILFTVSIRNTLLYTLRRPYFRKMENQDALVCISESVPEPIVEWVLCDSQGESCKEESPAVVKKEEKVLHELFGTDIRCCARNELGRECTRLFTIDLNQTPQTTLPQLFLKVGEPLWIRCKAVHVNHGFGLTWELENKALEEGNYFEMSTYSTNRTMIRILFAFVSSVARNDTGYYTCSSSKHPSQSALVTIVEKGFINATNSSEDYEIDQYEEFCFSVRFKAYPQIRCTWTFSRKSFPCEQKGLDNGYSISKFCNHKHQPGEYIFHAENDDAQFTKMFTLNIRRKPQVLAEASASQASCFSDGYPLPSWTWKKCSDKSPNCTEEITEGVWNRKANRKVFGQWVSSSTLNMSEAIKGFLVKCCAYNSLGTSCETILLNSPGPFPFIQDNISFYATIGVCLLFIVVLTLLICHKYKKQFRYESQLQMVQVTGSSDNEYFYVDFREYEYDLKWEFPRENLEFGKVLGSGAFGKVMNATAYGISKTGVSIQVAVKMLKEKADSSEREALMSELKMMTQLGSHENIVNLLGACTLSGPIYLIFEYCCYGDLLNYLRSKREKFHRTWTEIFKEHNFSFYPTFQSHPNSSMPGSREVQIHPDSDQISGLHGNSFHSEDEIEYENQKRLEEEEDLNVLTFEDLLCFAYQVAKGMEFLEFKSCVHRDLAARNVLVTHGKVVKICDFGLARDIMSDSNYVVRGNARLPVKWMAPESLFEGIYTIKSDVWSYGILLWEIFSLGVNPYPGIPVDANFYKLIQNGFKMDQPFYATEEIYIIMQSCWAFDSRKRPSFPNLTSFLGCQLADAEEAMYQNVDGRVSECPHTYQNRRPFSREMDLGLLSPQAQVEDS

Rec1 = experiment: Growth inhibition of human REC1 cells assessed as inhibition of cell growth measured after 72 hrs by resazurin dye based assay; format: functional
Ramos = experiment: Growth inhibition of human Ramos cells assessed as inhibition of cell growth measured after 72 hrs by resazurin dye based assay; format: functional
[8] = target: Cyclin-dependent kinase 2 (Homo sapiens) (UniProt P24941); experiment: Inhibition of GST-tagged CDK2/cyclinE (unknown origin) expressed in Sf9 cells assessed as residual activity using histone H1 as substrate in presence of ATP and Ci(gamma33-P) ATP at 1 uM measured by microplate reader assay
[9] = target: Tyrosine-protein kinase SYK (Homo sapiens) (UniProt P43405); experiment: Inhibition of human recombinant GST-tagged SYK (M1 to N635 residues) assessed as residual activity using poly (Glu,Tyr) as substrate in presence of ATP and Ci(gamma33-P) ATP at 1 uM measured by microplate reader assay
[10] = target: T1, Tyrosine-protein kinase BTK; experiment: Inhibition of BTK in human Ramos cells assessed as reduction of IgM stimulated BTK ([…]) phosphorylation at 1 to 5 uM measured after 24 hrs by western blot assay; format: cell-based; conditions: dose 1-5 µM
[11] = target: Mitogen-activated protein kinase; ERK1/ERK2 (Homo sapiens) (UniProt P27361+P28482); experiment: Inhibition of ERK1/2 in human Ramos cells assessed as reduction in ERK1/2 phosphorylation at 1 to 5 uM measured after 24 hrs by western blot assay; format: cell-based; conditions: dose 1-5 µM
Mitogen-activated protein kinase; ERK1/ERK2 (Homo sapiens), sequence (P27361 whole entry, looked up): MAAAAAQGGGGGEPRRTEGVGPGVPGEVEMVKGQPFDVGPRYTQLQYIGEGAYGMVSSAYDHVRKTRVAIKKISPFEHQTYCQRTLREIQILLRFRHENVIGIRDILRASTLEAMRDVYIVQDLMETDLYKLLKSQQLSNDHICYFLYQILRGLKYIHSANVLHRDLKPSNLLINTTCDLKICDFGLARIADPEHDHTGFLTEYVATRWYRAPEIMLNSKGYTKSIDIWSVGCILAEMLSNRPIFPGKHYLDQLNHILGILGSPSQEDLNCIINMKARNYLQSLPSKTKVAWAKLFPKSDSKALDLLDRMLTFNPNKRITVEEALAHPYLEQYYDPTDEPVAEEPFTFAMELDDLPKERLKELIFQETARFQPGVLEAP
Mitogen-activated protein kinase; ERK1/ERK2 (Homo sapiens), sequence (P28482 whole entry, looked up): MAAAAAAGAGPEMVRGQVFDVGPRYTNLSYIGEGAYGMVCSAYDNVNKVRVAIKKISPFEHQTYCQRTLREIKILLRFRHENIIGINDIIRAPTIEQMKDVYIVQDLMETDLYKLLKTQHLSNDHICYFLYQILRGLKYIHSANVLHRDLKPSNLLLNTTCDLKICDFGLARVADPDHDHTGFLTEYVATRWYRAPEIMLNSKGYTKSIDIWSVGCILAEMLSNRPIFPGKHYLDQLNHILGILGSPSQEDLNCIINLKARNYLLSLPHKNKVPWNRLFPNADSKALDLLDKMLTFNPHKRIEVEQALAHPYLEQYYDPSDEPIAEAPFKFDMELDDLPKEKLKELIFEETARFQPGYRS

[12] = target: T1, Tyrosine-protein kinase BTK; experiment: Inhibition of BTK in human Ramos cells assessed as reduction of IgM stimulated PLCgamma2 (Y1217) phosphorylation at 1 to 5 uM measured after 24 hrs by western blot assay; format: cell-based; conditions: dose 1-5 µM

SMILES	Activity [1] [%]	IC50 [3] [µM]	GI50 (K562; Homo sapiens, K562) [µM]	Activity [4] [%]	Activity [6] [%]	Activity [7] [%]	GI50 (Ramos; Homo sapiens, Ramos) [µM]	Activity [8] [%]	Activity [9] [%]	inhibition [10]	inhibition [11]	inhibition [12]	GI50 ([2]; Homo sapiens, UPF1H) [µM]	GI50 ([5]; Homo sapiens, UPF7U) [µM]	GI50 (Rec1; Homo sapiens, Rec1) [µM]	GI50 [2] [µM]	GI50 (K562) [µM]	GI50 [5] [µM]	GI50 (Rec1) [µM]	GI50 (Ramos) [µM]
COc1ccc(Cn2cnc3c(Nc4ccc(C(=O)N5CCOCC5)cc4)nc(-c4cccc(NC(=O)c5ccc(C(C)(C)C)cc5)c4C)cc32)cc1	95.1	> 10	> 50	73.9	71.2	42.7	> 50	96.7	82.3				> 50	> 50	> 50					
CC(=O)Nc1cccc(-c2cc3[nH]cnc3c(Nc3ccc(C(=O)N4CCOCC4)cc3)n2)c1C	52.4	0.545	> 50	84	38.8	95	> 50	94.5	61.7				35.1	> 50	> 50					
Cc1cccc(-c2cc(Nc3ccc(C(=O)N4CCOCC4)cc3)c3nc[nH]c3n2)c1C			> 50				> 50						> 50	> 50	> 50					
Cc1c(NC(=O)c2c[nH]cn2)cccc1-c1cc2[nH]cnc2c(Nc2ccc(C(=O)N3CCOCC3)cc2)n1	80.8	0.079	> 50	36.6	27.2	68.3	> 50	94.6	76.5				> 25	> 50	> 50					
Cc1c(NC(=O)c2ccccc2)cccc1-c1cc2[nH]cnc2c(Nc2ccc(C(=O)N3CCOCC3)cc2)n1	68.2	0.155	> 16.6	65.3	20.1	47	> 16.6	85.2	71.3				> 50	> 50	> 16.6					
Cc1c(NC(=O)c2cccnc2)cccc1-c1cc2[nH]cnc2c(Nc2ccc(C(=O)N3CCOCC3)cc2)n1	69.1	0.264	> 50	75.2	25.3	76.2	> 50	89	62.3	Active	inactive	Active	> 50	> 50	> 50					
Cc1cccc(-c2cc3[nH]cnc3c(Nc3ccc(C(=O)N4CCOCC4)cc3)n2)c1C			> 50				45.8				inactive		> 50	> 50	42					
C=CC(=O)N1CCC[C@H](n2nc(-c3ccc(Oc4ccccc4)cc3)c3c(N)ncnc32)C1	62.8			57.5		60.3		69.8	77.3							> 4	> 4	> 4	3.3	> 4
Cc1c(NC(=O)c2ncc[nH]2)cccc1-c1cc2[nH]cnc2c(Nc2ccc(C(=O)N3CCOCC3)cc2)n1	39.4	0.041	> 25	56.3	24.2	33.3	> 25	93.6	66				> 12.5	> 25	> 25					

Further lines, with some results ahead:

Activity [1] [%]	IC50 [3] [µM]	GI50 (K562; Homo sapiens, K562) [µM]	Activity [4] [%]	Activity [6] [%]	Activity [7] [%]	GI50 (Ramos; Homo sapiens, Ramos) [µM]	Activity [8] [%]	Activity [9] [%]	inhibition [10]	inhibition [11]	inhibition [12]	SMILES	GI50 ([2]; Homo sapiens, UPF1H) [µM]	GI50 ([5]; Homo sapiens, UPF7U) [µM]	GI50 (Rec1; Homo sapiens, Rec1) [µM]	GI50 [2] [µM]	GI50 (K562) [µM]	GI50 [5] [µM]	GI50 (Rec1) [µM]	GI50 (Ramos) [µM]
	0.932	49	95.1	61.5	75.7	47.2	93	43.3	Active	inactive	Active	Cc1c(NC(=O)C2CCCCC2)cccc1-c1cc2[nH]cnc2c(Nc2ccc(C(=O)N3CCOCC3)cc2)n1	44.1	> 50	> 50					
> 100	0.527	57.3	68.8	39.7	> 100	12.2	95.6	74.3				Cc1c(NC(=O)c2ccc(C(C)(C)C)cc2)cccc1-c1cc2c(ncn2C)c(Nc2ccc(C(=O)N3CCOCC3)cc2)n1	25.6	35.6	17.7					
78	0.035	10	64.7	20.9	53.9	10.1	97.9	92	Active		Active	Cc1c(NC(=O)c2nc3ccccc3[nH]2)cccc1-c1cc2[nH]cnc2c(Nc2ccc(C(=O)N3CCOCC3)cc2)n1	> 12.5	> 12.5	> 12.5					
> 100	0.709	60.1	81	43.3	64.9	18.6	95.3	74.1				Cc1c(NC(=O)c2cccc(C(C)(C)C)c2)cccc1-c1cc2[nH]cnc2c(Nc2ccc(C(=O)N3CCOCC3)cc2)n1	40.3	> 50	64					
56.8	0.166	> 12.5	78.8	27.4	> 100	> 12.5	93.7	72.5				Cc1c(NC(=O)c2ccccn2)cccc1-c1cc2[nH]cnc2c(Nc2ccc(C(=O)N3CCOCC3)cc2)n1	> 12.5	> 12.5	> 12.5					
